Consider one compound from ChEMBL document CHEMBL5335819, “Discovery of an ellipticine derivative as TLR3 inhibitor against influenza A virus and SARS-CoV-2” (Bioorg Med Chem Lett, 2024).

Structures are written as SMILES. Active and inactive are the calls of the source. The calls are words filed in the database; no cut-off is given here. Bounds are passed on as bounds.

Series [1] can be described thus: Cytotoxicity against human HEK293T cells assessed as reduction in cell viability incubated for 48 hrs by MTT assay. The series is classed as toxicity, cell-based, HEK-293T. On the technique in general: Formazan colour is commonly taken as a measure of viable cells.
The test system of the next series is A549. Kind of series: Reduction in Poly(I:C) induced TLR3 mRNA expression in human A549 cells by qRT-PCR analysis. The series is classed as functional, cell-based. On the technique in general: Quantitative PCR measures a nucleic acid by following its amplification.
The subject of series [2] is Influenza A virus. Kind of series: Antiviral activity against Influenza virus infected in TLR3 knockdown human A549 cells assessed as reduction in NP protein level measured after 24 hrs by Western blot analysis. In kind it is functional, organism-based. In general terms: Immunoblotting shows a protein as a band on a membrane.
For series [3], the system named is Influenza A virus. The series is described as follows: Antiviral activity against Influenza virus infected in human A549 cells assessed as reduction in virus induced IFN- beta mRNA expression level by qRT-PCR analysis. In kind it is functional, organism-based.
Series [4] deals with SARS-CoV-2. Kind of series: Antiviral activity against SARS-CoV-2 infected in African green monkey Vero E6 cells assessed as inhibition of NP protein by indirect immunofluoresence assay. The series is classed as functional, organism-based. As to conditions: Severe acute respiratory syndrome coronavirus 2.
The subject of series [5] is Influenza A virus. Kind of series: Antiviral activity against Influenza virus infected in human A549 cells assessed as reduction in virus induced IP-10 mRNA expression level by qRT-PCR analysis. In kind it is functional, organism-based.
For series [6], the system named is Influenza A virus. The series is described as follows: Antiviral activity against Influenza A virus A/WSN/33 (H1N1) infected in dog MDCK cells.
The nature of series [7]: Cytotoxicity against African green monkey Vero E6 cells assessed as reduction in cell viability by CCK-8 assay. The series is classed as toxicity, cell-based, Vero C1008. As to conditions: chlorocebus sabaeus.
Series [8] has as its system Influenza A virus. Kind of series: Antiviral activity against Influenza virus infected in TLR3 human knockdown A549 cells assessed as reduction in PB2 protein level measured after 24 hrs by Western blot analysis. The series is classed as functional, organism-based.
Series [9] in a line: Cytotoxicity against human BEAS-2B cells assessed as reduction in cell viability incubated for 48 hrs by MTT assay. The series is classed as toxicity, cell-based.
Series [10] in a line: Cytotoxicity against human A549 cells assessed as reduction in cell viability incubated for 48 hrs by MTT assay. In kind it is toxicity, cell-based.
In series [11] the test system is Influenza A virus. Kind of series: Antiviral activity against Influenza virus infected in human A549 cells assessed as reduction in virus induced CCL-5 mRNA expression level by qRT-PCR analysis. The series is classed as functional, organism-based.
The target in series [12] is Toll-like receptor 3 (Homo sapiens) (UniProt O15455). Kind of series: Inhibition of human TLR3 expressed in mouse RAW264.7 cells assessed as inhibition of NO production. In kind it is cell-based.
Chain of Toll-like receptor 3 (Homo sapiens) (O15455 whole entry): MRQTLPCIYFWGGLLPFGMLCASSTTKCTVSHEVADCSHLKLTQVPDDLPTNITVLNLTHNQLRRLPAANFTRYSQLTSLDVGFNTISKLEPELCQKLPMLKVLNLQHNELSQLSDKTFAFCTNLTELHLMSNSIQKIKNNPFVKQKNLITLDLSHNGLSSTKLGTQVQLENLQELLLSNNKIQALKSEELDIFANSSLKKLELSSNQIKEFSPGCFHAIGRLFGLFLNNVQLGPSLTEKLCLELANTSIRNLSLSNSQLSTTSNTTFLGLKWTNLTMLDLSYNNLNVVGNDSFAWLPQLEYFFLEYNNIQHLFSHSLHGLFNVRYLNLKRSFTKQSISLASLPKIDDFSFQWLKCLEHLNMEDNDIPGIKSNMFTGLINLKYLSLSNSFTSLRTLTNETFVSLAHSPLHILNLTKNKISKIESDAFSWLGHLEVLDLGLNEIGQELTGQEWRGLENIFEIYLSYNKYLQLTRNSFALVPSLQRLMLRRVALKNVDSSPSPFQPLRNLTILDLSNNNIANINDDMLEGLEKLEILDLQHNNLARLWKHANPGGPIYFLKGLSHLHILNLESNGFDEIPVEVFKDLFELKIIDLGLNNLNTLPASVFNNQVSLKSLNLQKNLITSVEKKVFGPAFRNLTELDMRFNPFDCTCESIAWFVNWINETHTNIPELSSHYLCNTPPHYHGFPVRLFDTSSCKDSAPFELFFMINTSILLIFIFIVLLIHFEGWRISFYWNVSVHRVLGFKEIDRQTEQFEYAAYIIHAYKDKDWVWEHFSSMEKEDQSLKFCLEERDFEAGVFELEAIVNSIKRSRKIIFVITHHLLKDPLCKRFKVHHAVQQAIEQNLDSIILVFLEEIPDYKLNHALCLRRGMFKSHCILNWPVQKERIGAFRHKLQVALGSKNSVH
Series [13] deals with Influenza A virus. Kind of series: Antiviral activity against Influenza virus infected in TLR3 knockdown human A549 cells by plaque assay. The series is classed as functional, organism-based.
For a further series, the system named is MDCK. Kind of series: Cytotoxicity against MDCK cells assessed as reduction in cell viability incubated for 48 hrs by MTT assay. As to conditions: dog. The series is classed as toxicity, cell-based, Canis lupus familiaris.
For series [14], the system named is SARS-CoV-2. The series is described as follows: Antiviral activity against SARS-CoV-2 infected in African green monkey Vero E6 cells. In kind it is functional, organism-based. As to conditions: Severe acute respiratory syndrome coronavirus 2, Vero C1008.
Series [15] has as its system Influenza A virus. The series is described as follows: Antiviral activity against Influenza A virus A/Puerto Rico/8/34 (H1N1) infected in dog MDCK cells.

As for `COc1ccc2[nH]c3c(C)c4ccncc4c(C)c3c2c1`, the CC50 at 48 h in series [1], in series [9] and in [10] was 5.33 µM in each case. For the same compound, the result with A549, in the series on Influenza A virus [2], in the series with Influenza A virus [3], in the series with Influenza A virus [5], in the series on Influenza A virus [8] and with Influenza A virus [11] was Active. For the same compound, the Activity result in the series on SARS-CoV-2 [4] was “Dose-Dependent Effect”. Further, the IC50 in the series with Influenza A virus [6] worked out at 0.33 µM; with SARS-CoV-2 [14] it was 0.43 µM; in the series on Influenza A virus [15] it was 0.14 µM. The CC50 is above 10 µM in series [7] and 5.33 µM with MDCK. For the same compound, the inhibition entry in series [12] was “Active”. In addition, the outcome in the series with Influenza A virus [13] was inactive.

By CC50 is commonly meant the concentration at which the toxic effect on the cells reaches its halfway point. As a reminder, the IC50 is the concentration needed to halve the response being measured.
